Columns and labels:
[1] = Cytotoxicity against human HepG2.2.15 cells assessed as reduction in cell viability incubated for 3 days followed by replacement of fresh medium containing compound and measured after 3 days by cell titer glo-based luminescence assay; parameters: species or system HepG2 2.2.15
[2] = Half life in human hepatocytes; format: ADME, cell-based, Hepatocyte
[3] = Half life in human at 200 mg; format: ADME
Hepatitis B virus [4] = assay: Antiviral activity against Hepatitis B virus infected in naive HBeAg positive patients assessed as log10 reduction in HBV DNA at 600 mg bid; format: functional
[5] = Lipophilicity, log P of the compound; format: physicochemical; conditions: octanol/water
[6] = Ratio of drug concentration in liver to plasma of CD1 mouse; format: ADME
[7] = Oral bioavailability in CD1 mouse at 10 mg/kg; format: ADME, organism-based; conditions: in vivo
[8] = Oral bioavailability in Mongrel dog at 3 mg/kg; format: ADME, organism-based, Canis lupus familiaris; conditions: in vivo
[9] = Half life in CD1 mouse at 10 mg/kg, po or 2 mg/kg, iv; format: ADME, organism-based; conditions: in vivo
[10] = Half life in Sprague-Dawley rat at 10 mg/kg, po or 2 mg/kg, iv; format: ADME, organism-based; conditions: in vivo
[11] = Half life in Mongrel dog at 3 mg/kg, po or 1 mg/kg, iv; format: ADME, organism-based, Canis lupus familiaris; conditions: in vivo
[12] = Clearance in CD1 mouse at 10 mg/kg, po or 2 mg/kg, iv; format: ADME, organism-based; conditions: in vivo
[13] = Clearance in Sprague-Dawley rat at 10 mg/kg, po or 2 mg/kg, iv; format: ADME, organism-based; conditions: in vivo
[14] = Clearance in Mongrel dog at 3 mg/kg, po or 1 mg/kg, iv; format: ADME, organism-based, Canis lupus familiaris; conditions: in vivo
[15] = Volume of distribution at steady state in CD1 mouse at 10 mg/kg, po or 2 mg/kg, iv; format: ADME, organism-based; conditions: in vivo, read-out: Vdss
[16] = Volume of distribution at steady state in Sprague-Dawley rat at 10 mg/kg, po or 2 mg/kg, iv; format: ADME, organism-based; conditions: in vivo, read-out: Vdss
[17] = Volume of distribution at steady state in Mongrel dog at 3 mg/kg, po or 1 mg/kg, iv; format: ADME, organism-based, Canis lupus familiaris; conditions: in vivo, read-out: Vdss
Hepatitis B virus [18] = assay: Ratio of EC50 for antiviral activity against Hepatitis B virus infected in human HepG2.2.15 cells in presence of 40% normal human serum to EC50 for antiviral activity against Hepatitis B virus infected in human HepG2.2.15 cells in absence of 40% normal human serum; format: functional
[19] = Half life in CD1 mouse hepatocytes; format: ADME, cell-based, Hepatocyte
[20] = Half life in Sprague-Dawley rat hepatocytes; format: ADME, cell-based, Hepatocyte
[21] = Half life in Mongrel dog hepatocytes; format: ADME, cell-based, Canis lupus familiaris, Hepatocyte
[22] = Stability in human hepatocytes; format: ADME, cell-based, Hepatocyte
[23] = Solubility of the compound in DMSO; format: physicochemical
[24] = AUC in CD1 mouse plasma at 5 mg/kg; format: ADME, organism-based; conditions: in vivo
[25] = AUC in CD1 mouse liver at 5 mg/kg; format: ADME, organism-based; conditions: in vivo

## O=C(Nc1ccc(F)c(Cl)c1)c1ccc(F)c(S(=O)(=O)N2CCCC(O)CC2)c1 (stereo not drawn)
[1]
  CC50 at 72 h: 29 µM

## CC(O)C1CCCCN(S(=O)(=O)c2cc(C(=O)Nc3ccc(F)c(Cl)c3)ccc2F)C1 (stereo not drawn)
[1]
  CC50 at 72 h: 2.6 µM

## O=C(Nc1ccc(F)c(Cl)c1)c1ccc(F)c(S(=O)(=O)N2CCCCC(O)C2)c1 (stereo not drawn)
[1]
  CC50 at 72 h: 15 µM
[2]
  half-life: 0.817 h

## O=C(Nc1ccc(F)c(Cl)c1)c1ccc(F)c(S(=O)(=O)N2CCCCC(O)CC2)c1 (stereo not drawn)
[1]
  CC50 at 72 h: 24 µM
[2]
  half-life: 0.0833 h

## O=C(Nc1ccc(F)c(Cl)c1)c1ccc(F)c(S(=O)(=O)N2CCCCC(CO)C2)c1 (stereo not drawn)
[1]
  CC50 at 72 h: 3.1 µM

## CC1(O)COCCN(S(=O)(=O)c2cc(C(=O)Nc3ccc(F)c(Cl)c3)ccc2F)C1 (stereo not drawn)
[1]
  CC50 at 72 h: 7.1 to 15 µM
[2]
  half-life: 1.28 h

## O=C(Nc1ccc(F)c(Cl)c1)c1ccc(F)c(S(=O)(=O)N2CCOCC(F)C2)c1 (stereo not drawn)
[1]
  CC50 at 72 h: 15 µM

## O=C(Nc1ccc(F)c(Cl)c1)c1ccc(F)c(S(=O)(=O)N2CCSCC(O)C2)c1 (stereo not drawn)
[1]
  CC50 at 72 h: 19 µM

## O=C(Nc1ccc(F)c(Cl)c1)c1ccc(F)c(S(=O)(=O)N2CCCCC(F)(F)C2)c1
[1]
  CC50 at 72 h: 11 µM

## COC1COCCN(S(=O)(=O)c2cc(C(=O)Nc3ccc(F)c(Cl)c3)ccc2F)C1 (stereo not drawn)
[1]
  CC50 at 72 h: 8.7 µM

## CN1CCN(S(=O)(=O)c2cc(C(=O)Nc3ccc(F)c(Cl)c3)ccc2F)CC(O)C1 (stereo not drawn)
[1]
  CC50 at 72 h: 31 µM

## O=C(Nc1cc(F)c(F)c(F)c1)c1ccc(F)c(S(=O)(=O)N2CCC(O)CC2)c1
[3]
  half-life: 15 to 19 h
Hepatitis B virus [4]
  Activity: 1.7 log10IU/ml
[5]
  logP: 3.2
[6]
  Kp: 6

## CC1(O)CCCN(S(=O)(=O)c2cc(C(=O)Nc3ccc(F)c(Cl)c3)ccc2F)CC1 (stereo not drawn)
[1]
  CC50 at 72 h: 11 µM

## O=C(Nc1ccc(F)c(Cl)c1)c1ccc(F)c(S(=O)(=O)N2CCOC[C@@H](O)C2)c1
[1]
  CC50 at 72 h: 14 µM

## CC1(O)CCCCN(S(=O)(=O)c2cc(C(=O)Nc3ccc(F)c(Cl)c3)ccc2F)C1 (stereo not drawn)
[1]
  CC50 at 72 h: 10 µM

## O=C(Nc1ccc(F)c(Cl)c1)c1ccc(F)c(S(=O)(=O)N2CCCCCC(O)C2)c1 (stereo not drawn)
[1]
  CC50 at 72 h: 11 µM
[2]
  half-life: 0.267 h

## O=C(Nc1ccc(F)c(Cl)c1)c1ccc(F)c(S(=O)(=O)N2CCOC[C@H](O)C2)c1
[1]
  CC50 at 72 h: 19 µM
[7]
  bioavailability: 78%
[8]
  bioavailability: 53%
[9]
  half-life: 2.6 h
[10]
  half-life: 0.6 h
[11]
  half-life: 4.6 h
[12]
  clearance: 28 mL/min/kg
[13]
  clearance: 88 mL/min/kg
[14]
  clearance: 5.4 mL/min/kg
[15]
  Vd: 4.1 L/kg
[16]
  Vd: 3.3 L/kg
[17]
  Vd: 1.3 L/kg
Hepatitis B virus [18]
  Ratio EC50: 6
[5]; read-out: logP
  logP: 2.6
[6]
  Kp: 15
[19]
  half-life: 0.8 h
[20]
  half-life: 0.467 h
[21]
  half-life: 4.63 h
[22]
  Stability: Stable

## CN1CCCN(S(=O)(=O)c2cc(C(=O)Nc3ccc(F)c(Cl)c3)ccc2F)CC1=O
[1]
  CC50 at 72 h: > 100 µM
[23]
  solubility: Insoluble

## O=C(Nc1ccc(F)c(Cl)c1)c1ccc(F)c(S(=O)(=O)N2C[C@H](O)CC[C@H](O)C2)c1
[2]
  half-life: 8.58 h
[7]
  bioavailability: 12%
[8]
  bioavailability: 22%
[9]
  half-life: 3.2 h
[11]
  half-life: 4.6 h
[12]
  clearance: 34 mL/min/kg
[14]
  clearance: 6.4 mL/min/kg
[15]
  Vd: 4.1 L/kg
[17]
  Vd: 1.3 L/kg
[24]
  AUC: 0.73 µM·h
[25]
  AUC: 55.4 µM·h
[5]; read-out: logP
  logP: 2.9
[6]
  Kp: 76
[19]
  half-life: 3.72 h
[20]
  half-life: 0.467 h
[21]
  half-life: 3.23 h

## O=C(Nc1ccc(F)c(Cl)c1)c1ccc(F)c(S(=O)(=O)N2CCCCCCC2O)c1 (stereo not drawn)
[1]
  CC50 at 72 h: 7 µM

## O=C(Nc1ccc(F)c(Cl)c1)c1ccc(F)c(S(=O)(=O)N2CCOCC(O)C2)c1 (racemic)
[1]
  CC50 at 72 h: 7.1 to 15 µM
[2]
  half-life: 4.63 h

From ChEMBL document CHEMBL4433248, “SAR studies in the sulfonyl carboxamide class of HBV capsid assembly modulators” (Bioorg Med Chem Lett, 2019)
